From patent US6492375B2, “Partially saturated calcium channel blockers” (NeuroMed Technologies, Inc., priority 1998, dated 2002)
Values joined by “and” are separate entries in the source; they are usually repeats but may differ in a detail not shown here. Identical values can stand only once.

Each compound was assayed against T1, rat α1B+α2b+β1b channels (Rattus norvegicus, UniProt Q02294) (assay: N-type calcium channel blocking activity, whole cell patch recordings). Conditions: N-type calcium channels expressed in human embryonic kidney cells; 5 mM barium as charge carrier.
T1 construct: expressed in transfected cells
Format: cell-based
Method: Antagonist activity was measured using whole cell patch recordings on human embryonic kidney cells either stably or transiently expressing rat α1B+α2b+β1b channels with 5 mM barium as a charge carrier.
For transient expression, host cells, such as human embryonic kidney cells, HEK 293 (ATCC# CRL 1573) are grown in standard DMEM medium supplemented with 2 mM glutamine and 10% fetal bovine serum. HEK 293 cells are transfected by a standard calcium-phosphate-DNA coprecipitation method using the rat α1B+β1b+α2δ N-type calcium channel subunits in a vertebrate expression vector (for example, see Current Protocols in Molecular Biology).
After an incubation period of from 24 to 72 hrs the culture medium is removed and replaced with external recording solution (see below). Whole cell patch clamp experiments are performed using an Axopatch 200B amplifier (Axon Instruments, Burlingame, Calif.) linked to an IBM compatible personal computer equipped with pCLAMP software. Borosilicate glass patch pipettes (Sutter Instrument Co., Novato, Calif.) were polished (Microforge, Narishige, Japan) to a resistance of about 4 MΩ when filled with cesium methanesulfonate internal solution (composition in MM: 109 CsCH3SO4, 4 MgCl2, 9 EGTA, 9 HEPES, pH 7.2). Cells were bathed in 5 mM Ba^++ (in mM: 5 BaCl2, 1 MgCl2, 10 HEPES, 40 tetraethylammonium chloride, 10 glucose, 87.5 CsCl pH 7.2). Current data shown were elicited by a train of 100 ms test pulses at 0.066 Hz from −100 mV and/or −80 mV to various potentials (min. −20 mV, max. +30 mV). Drugs were perfused directly into the vicinity of the cells using a microperfusion system.
Normalized dose-response curves were fit (Sigmaplot 4.0, SPSS Inc., Chicago, Ill.) by the Hill equation to determine IC50 values. Steady-state inactivation curves were plotted as the normalized test pulse amplitude following 5 s inactivating prepulses at +10 mV increments. Inactivation curves were fit (Sigmaplot 4.0) with the Boltzman equation, Ipeak (normalized)=1/(1+exp((V-Vh)z/25.6)), where V and Vh are the conditioning and half inactivation potentials, respectively, and z is the slope factor. […]

T1 sequence (Q02294 whole entry): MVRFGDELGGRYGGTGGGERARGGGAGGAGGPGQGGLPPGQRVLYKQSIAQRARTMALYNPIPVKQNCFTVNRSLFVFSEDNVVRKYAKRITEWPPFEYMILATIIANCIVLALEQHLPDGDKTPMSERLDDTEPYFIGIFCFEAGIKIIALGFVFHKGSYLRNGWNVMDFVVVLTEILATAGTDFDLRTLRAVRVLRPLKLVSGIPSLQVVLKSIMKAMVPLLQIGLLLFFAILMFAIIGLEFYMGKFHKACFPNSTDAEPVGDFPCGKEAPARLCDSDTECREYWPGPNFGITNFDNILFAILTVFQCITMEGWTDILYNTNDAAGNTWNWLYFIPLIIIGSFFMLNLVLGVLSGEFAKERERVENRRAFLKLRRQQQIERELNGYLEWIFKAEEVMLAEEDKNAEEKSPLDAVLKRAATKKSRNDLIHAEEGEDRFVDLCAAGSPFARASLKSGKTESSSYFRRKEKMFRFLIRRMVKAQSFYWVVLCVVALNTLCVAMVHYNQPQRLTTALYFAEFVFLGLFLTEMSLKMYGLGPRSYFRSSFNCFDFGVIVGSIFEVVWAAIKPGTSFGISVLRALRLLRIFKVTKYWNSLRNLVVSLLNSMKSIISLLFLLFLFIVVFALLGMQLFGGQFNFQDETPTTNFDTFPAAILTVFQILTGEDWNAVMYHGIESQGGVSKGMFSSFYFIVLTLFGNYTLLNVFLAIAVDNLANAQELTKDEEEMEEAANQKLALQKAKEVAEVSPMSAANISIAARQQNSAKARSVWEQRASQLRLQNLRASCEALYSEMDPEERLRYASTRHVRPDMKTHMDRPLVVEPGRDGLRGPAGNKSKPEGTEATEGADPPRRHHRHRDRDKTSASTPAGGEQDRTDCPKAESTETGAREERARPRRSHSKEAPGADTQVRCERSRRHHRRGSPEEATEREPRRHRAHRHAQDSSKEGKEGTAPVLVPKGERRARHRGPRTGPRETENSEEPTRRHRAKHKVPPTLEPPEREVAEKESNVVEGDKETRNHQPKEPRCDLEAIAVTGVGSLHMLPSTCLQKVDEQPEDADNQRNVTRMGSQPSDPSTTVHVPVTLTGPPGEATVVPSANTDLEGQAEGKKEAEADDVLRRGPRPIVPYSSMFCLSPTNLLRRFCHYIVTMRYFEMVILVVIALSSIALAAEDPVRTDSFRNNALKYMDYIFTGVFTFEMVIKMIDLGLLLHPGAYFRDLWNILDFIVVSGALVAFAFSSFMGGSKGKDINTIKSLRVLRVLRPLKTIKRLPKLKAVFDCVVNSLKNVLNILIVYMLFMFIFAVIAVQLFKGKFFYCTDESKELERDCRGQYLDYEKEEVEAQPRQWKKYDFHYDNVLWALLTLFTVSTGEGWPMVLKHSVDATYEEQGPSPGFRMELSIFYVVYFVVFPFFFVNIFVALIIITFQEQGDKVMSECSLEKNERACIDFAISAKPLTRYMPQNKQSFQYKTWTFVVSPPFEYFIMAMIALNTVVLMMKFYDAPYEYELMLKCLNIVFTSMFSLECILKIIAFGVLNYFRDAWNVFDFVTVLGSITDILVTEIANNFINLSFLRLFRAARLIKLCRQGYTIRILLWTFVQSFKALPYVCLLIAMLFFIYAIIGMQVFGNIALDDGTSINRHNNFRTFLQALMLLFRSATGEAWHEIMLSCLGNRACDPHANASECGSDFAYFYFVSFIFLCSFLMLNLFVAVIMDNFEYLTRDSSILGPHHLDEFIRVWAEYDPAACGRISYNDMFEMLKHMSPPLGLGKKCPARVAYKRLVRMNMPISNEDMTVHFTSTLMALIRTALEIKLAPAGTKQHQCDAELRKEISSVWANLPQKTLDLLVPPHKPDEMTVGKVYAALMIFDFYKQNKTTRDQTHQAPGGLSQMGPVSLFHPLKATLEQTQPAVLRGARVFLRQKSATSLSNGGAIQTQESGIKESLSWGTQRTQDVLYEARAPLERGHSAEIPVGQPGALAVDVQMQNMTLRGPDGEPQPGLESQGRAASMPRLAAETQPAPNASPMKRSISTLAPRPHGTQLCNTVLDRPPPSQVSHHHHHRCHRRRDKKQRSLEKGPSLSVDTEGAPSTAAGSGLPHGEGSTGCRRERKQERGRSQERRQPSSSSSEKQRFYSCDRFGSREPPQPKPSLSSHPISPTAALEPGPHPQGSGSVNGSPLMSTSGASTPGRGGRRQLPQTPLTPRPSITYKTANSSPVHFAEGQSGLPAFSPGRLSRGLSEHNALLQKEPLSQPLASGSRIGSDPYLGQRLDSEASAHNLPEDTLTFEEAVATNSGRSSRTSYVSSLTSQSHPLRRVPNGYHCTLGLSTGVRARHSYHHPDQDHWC
T1 sequence (P54290 25-944 partner limits assumed): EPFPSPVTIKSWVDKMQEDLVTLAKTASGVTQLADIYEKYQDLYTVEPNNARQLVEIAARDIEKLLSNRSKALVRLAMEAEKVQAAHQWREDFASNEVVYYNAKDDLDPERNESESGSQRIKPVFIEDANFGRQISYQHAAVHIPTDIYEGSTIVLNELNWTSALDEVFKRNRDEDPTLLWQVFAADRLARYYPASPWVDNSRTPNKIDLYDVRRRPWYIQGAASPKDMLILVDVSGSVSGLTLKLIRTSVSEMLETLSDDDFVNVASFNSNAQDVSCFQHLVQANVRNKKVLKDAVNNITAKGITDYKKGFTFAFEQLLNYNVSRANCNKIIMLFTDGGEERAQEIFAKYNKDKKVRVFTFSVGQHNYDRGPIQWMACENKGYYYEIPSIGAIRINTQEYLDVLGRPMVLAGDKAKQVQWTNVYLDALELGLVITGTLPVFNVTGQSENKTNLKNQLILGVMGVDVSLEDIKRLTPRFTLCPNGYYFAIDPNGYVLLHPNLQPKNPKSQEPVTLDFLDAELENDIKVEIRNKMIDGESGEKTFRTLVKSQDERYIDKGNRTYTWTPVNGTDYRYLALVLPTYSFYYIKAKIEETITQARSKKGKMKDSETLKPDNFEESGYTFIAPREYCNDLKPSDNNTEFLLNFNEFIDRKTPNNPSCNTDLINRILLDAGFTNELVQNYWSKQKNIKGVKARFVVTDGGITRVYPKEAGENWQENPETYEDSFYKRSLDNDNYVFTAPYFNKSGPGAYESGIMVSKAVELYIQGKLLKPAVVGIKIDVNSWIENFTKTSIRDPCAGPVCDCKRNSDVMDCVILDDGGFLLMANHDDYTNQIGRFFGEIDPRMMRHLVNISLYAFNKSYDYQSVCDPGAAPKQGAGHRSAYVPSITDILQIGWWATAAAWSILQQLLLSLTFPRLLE
T1 sequence (P54290 945-1091 partner limits assumed): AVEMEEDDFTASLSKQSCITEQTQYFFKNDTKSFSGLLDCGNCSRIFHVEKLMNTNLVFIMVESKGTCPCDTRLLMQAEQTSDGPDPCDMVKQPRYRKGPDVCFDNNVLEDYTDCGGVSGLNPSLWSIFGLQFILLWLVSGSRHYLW
T1 sequence (P54283 whole entry partner): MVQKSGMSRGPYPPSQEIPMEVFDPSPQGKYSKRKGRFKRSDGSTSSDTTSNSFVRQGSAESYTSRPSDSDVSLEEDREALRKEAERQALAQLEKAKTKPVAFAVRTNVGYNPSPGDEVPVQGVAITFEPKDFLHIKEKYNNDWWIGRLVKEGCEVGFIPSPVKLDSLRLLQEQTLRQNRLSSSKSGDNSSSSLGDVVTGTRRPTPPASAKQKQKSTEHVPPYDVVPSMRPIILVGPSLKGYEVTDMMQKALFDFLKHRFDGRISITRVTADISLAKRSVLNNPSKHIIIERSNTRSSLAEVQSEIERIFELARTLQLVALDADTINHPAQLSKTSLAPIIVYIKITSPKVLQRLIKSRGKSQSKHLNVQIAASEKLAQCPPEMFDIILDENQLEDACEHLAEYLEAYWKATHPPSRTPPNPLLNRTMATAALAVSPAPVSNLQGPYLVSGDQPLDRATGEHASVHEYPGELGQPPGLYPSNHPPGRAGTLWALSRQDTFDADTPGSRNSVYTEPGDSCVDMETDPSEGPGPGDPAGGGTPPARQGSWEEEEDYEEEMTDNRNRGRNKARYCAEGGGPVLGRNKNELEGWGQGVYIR

In order of falling IC50:
1. O=C(C(c1ccccc1)C1CCCCC1)N1CCN(Cc2ccccc2)CC1 (stereo not drawn) [Ya=φ, c-hex; X^1=CHCO; X^2=CH2; Ar=φ]  ~20 µM
2. O=C(C(C1CCCCC1)C1CCCCC1)N1CCN(Cc2ccccc2)CC1 [Ya=c-hex, c-hex; X^1=CHCO; X^2=CH2; Ar=φ]  14.2 µM
3. O=C(CCCCCC(c1ccccc1)C1CCCCC1)N1CCN(CC=Cc2ccccc2)CC1 (stereo not drawn)  12.2 µM
4. C(=Cc1ccccc1)CN1CCN(CC(C2CCCCC2)C2CCCCC2)CC1  10.2 µM
5. O=C(C(C1CCCCC1)C1CCCCC1)N1CCN(CC=Cc2ccccc2)CC1  5.9 µM
6. C(=Cc1ccccc1)CN1CCN(CCCCCC(c2ccccc2)C2CCCCC2)CC1 (stereo not drawn)  5.9 µM
7. O=C(C(c1ccccc1)C1CCCCC1)N1CCN(CC=Cc2ccccc2)CC1 (stereo not drawn)  ~5 µM
8. C(=Cc1ccccc1)CN1CCN(CCCCCCC(c2ccccc2)C2CCCCC2)CC1 (stereo not drawn)  3.2 µM

`C(=Cc1ccccc1)CN1CCN(CC(c2ccccc2)C2CCCCC2)CC1` (stereo not drawn) was tested, and the IC50 was 10.6 µM and ~5 µM.
